Reference: patent US10053432B2, “Substituted [1,2,4]triazole and imidazole compounds” (BASF SE, priority 2013, dated 2018)

What was measured:
Format in all cases: cell-based
Details in all cases: at 31 ppm; absorption at 405 nm 7 days after inoculation; relative to active compound-free control (100%)
[1] = tested on: Botrytis cinerea; assay: Activity against the grey mold Botrytis cinerea in the microtiterplate test (Botrci)
[2] = tested on: Septoria tritici; assay: Activity against leaf blotch on wheat caused by Septoria tritici (Septtr), microtiterplate test
[3] = tested on: Pyricularia oryzae

Measured: growth (relative growth in % of the pathogen)

OC(Cn1cncn1)(c1ccc(C#CC2CC2)cc1Cl)C1CC1 (stereo not drawn) [Compound I-1, 1-[2-chloro-4-(2-cyclopropylethynyl)phenyl]-1-cyclopropyl-2-(1,2,4-triazol-1-yl)ethanol]
0%: all assays above
